Like-named read-outs stand apart in the source and are kept apart here.
Columns and labels:
[1] = system: Hh signaling (Gli1 mRNA) in C3H10T1/2 cells; experiment: Down-regulation of endogenous Gli1 mRNA in Hh-dependent C3H10T1/2 cells; format: cell-based, mouse; conditions: for mrna remaining at 1 µM / IC50: Mus musculus; for mrna remaining at 1 µM: read-out: % Gli expression (1 μM)
Experimental: To determine whether the triazole functionality was required for inhibition of Hh signaling, the ability of Analogue 1 to down-regulate the well-characterized Hh pathway target gene Gli1 in the Hh-dependent C3H10T1/2 cell line was determined. In this cellular model, activation of the pathway with exogenous recombinant Hh ligand results in a characteristic up-regulation of Gli1 mRNA, while concomitant administration of a pathway inhibitor reduces Gli1 expression.
(§1) General Information. Protocols for general cell culture, qPCR and Hh inhibition in C3H10T1/2 and ASZ cells are as previously described.^28 Protocols for the initiation and growth of Math1-Cre-ER; Ptc^fl/fl medulloblastoma tumors, isolation and in vitro culture of MERP MB cells, as wells as the anti-proliferation and qPCR studies performed in these cells were as previously described.^a Sonic Hedgehog (C25II) recombinant mouse protein was purchased from Life Technologies. aData was analyzed using GraphPad Prism 5 and reported values represent mean±SEM for at least two separate experiments performed in triplicate.
(§2) In this well-studied model system for evaluating small molecule inhibition of Hh signaling, addition of an exogenous Hh agonist (recombinant Hh ligand or small molecule) results in a characteristic increase in Gli1 mRNA expression. Concomitant incubation with a pathway inhibitor reduces Gli1 expression. Analogues that reduced Gli1 mRNA levels below 20% in this assay were subsequently evaluated for their ability to reduce Gli1 mRNA expression levels in a concentration-dependent fashion in these cells and the Hh-dependent murine BCC cell line ASZ. In addition, several compounds were evaluated for their anti-proliferative effects in primary Hh-dependent medulloblastoma cells isolated from conditional patched knockout (Math1-Cre-ER; Ptc^fl/fl, MERP) mice. […] Finally, each of these analogues was evaluated for its ability to inhibit proliferation in human umbilical vein […] cells (HUVECs). In vivo angiogenesis is dependent on endothelial cell proliferation; therefore, the inhibition of HUVEC proliferation is commonly utilized as an early stage in vitro model of anti-angiogenic activity.

[2] = system: HUVEC; experiment: HUVEC proliferation (MTS); format: cell-based, human
From the text: In vivo angiogenesis is dependent on endothelial cell proliferation; therefore, the inhibition of HUVEC proliferation is commonly utilized as an early stage in vitro model of anti-angiogenic activity. […] Under normal conditions, HUVECs plated and grown on Matrigel migrate towards each other, align, and form tubes that resemble in vivo capillary beds. This assay is generally considered a more robust model of angiogenesis as it requires several aspects of proper vessel formation, including adhesion, migration, and tube formation.
HUVEC Cell Viability and Proliferation. HUVEC cell viability and proliferation will be assessed by measuring cellular metabolic activity using MTT (viability) or MTS (proliferation) according to the manufacturer's instructions. HUVECs (3000 cells/well) are seeded in a 96-well plate and allowed to attach overnight. […] For viability, the final value is a corrected optical density (570 nm-690 nm). All viability and GI50 values are from a minimum of three separate experiments performed in triplicate.
HUVEC Cell Viability and Proliferation. HUVEC cell proliferation was assessed by measuring cellular metabolic activity using standard MTS/PMS protocols according to manufacturer's instructions. Briefly, HUVECs (3,000 cells/well) were seeded in a 96-well plate and allowed to attach overnight. Cells were treated with varying concentrations of drug as indicated and proliferation was assessed after 72 h with MTS.

[3] = system: Hh signaling (Gli1 mRNA) in ASZ cells; experiment: Down-regulation of endogenous Gli1 mRNA in ASZ cells; format: cell-based, murine; conditions: Mus musculus
Experimental: as §1, §2

[4] = C3H 10T1/2, 1 μM, 24 hr incubation, relative to recombinant Hh ligand control (100%)
[5] = C3H 10T1/2, 24 hr incubation, read-out: IC50 (μM) C3H10T1/2
[6] = Homo sapiens, HUVEC, 72 h, read-out: GI50 (μM) HUVEC
[7] = 48 hr incubation, read-out: IC50 (μM) ASZ
[8] = C3H 10T1/2, read-out: IC50 (μM) Gli1-C3Hs
[9] = C3H 10T1/2, 24 h, read-out: IC50 (μM) C3H10T1/2, 24 hr incubation
[10] = Homo sapiens, HUVEC, 72 h, read-out: GI50 (μM) HUVEC, 72 h
[11] = 48 h, read-out: IC50 (μM) ASZ, 48 hr incubation
[12] = C3H 10T1/2, read-out: inactive in the C3H10T1/2 MEFs at concentrations up to
[13] = read-out: IC50 down-regulation of Gli1 in ASZ cells

CCC(C)n1ncn(-c2ccc(N3CCN(c4ccc(OCC5COC(Cn6cncn6)(c6ccccc6)O5)cc4)CC3)cc2)c1=O (stereo not shown) [Compound 3a, 4-(4-(4-(4-((2-((1H-1,2,4-triazol-1-yl)methyl)-2-phenyl-1,3-dioxolan-4-yl)methoxy)phenyl)piperazin-1-yl)phenyl)-1-(sec-butyl)-1H-1,2,4-triazol-5(4H)-one]
mrna remaining at 1 µM [1, 4]: 13.1 ± 1.2% | IC50 [1, 5]: 0.42 ± 0.2 µM | GI50 [2, 6]: 8.3 ± 0.7 µM | IC50 [3, 7]: 0.45 ± 0.06 µM

CC[C@@H](C)n1ncn(-c2ccc(N3CCN(c4ccc(OC[C@H]5CO[C@@](C)(c6ccc(Cl)cc6Cl)O5)cc4)CC3)cc2)c1=O [Compound 19a, 2-((R)-sec-butyl)-4-(4-(4-(4-(((2R,4S)-2-(2,4-dichlorophenyl)-2-methyl-1,3-dioxolan-4-yl)methoxy)phenyl)piperazin-1-yl)phenyl)-2,4-dihydro-3H-1,2,4-triazol-3-one]
IC50 [1, 5]: 6.6 ± 0.3 µM | GI50 [2, 6]: 65 ± 11.5 µM | IC50 [3, 7]: 2.8 ± 0.9 µM

CC[C@H](C)n1ncn(-c2ccc(N3CCN(c4ccc(OC[C@H]5CO[C@](C)(c6ccc(Cl)cc6Cl)O5)cc4)CC3)cc2)c1=O [Compound 14a, 2-((S)-sec-butyl)-4-(4-(4-(4-(((2S,4S)-2-(2,4-dichlorophenyl)-2-methyl-1,3-dioxolan-4-yl)methoxy)phenyl)piperazin-1-yl)phenyl)-2,4-dihydro-3H-1,2,4-triazol-3-one]
IC50 [1, 5]: 1.1 ± 0.17 µM | GI50 [2, 6]: 7.7 ± 4.4 µM | IC50 [3, 7]: 2.5 ± 0.7 µM

CCC(C)n1ncn(-c2ccc(N3CCN(c4ccc(O)cc4)CC3)cc2)c1=O (stereo not shown) [Compound 45a]
% Gli expression (1 μM) ([1]; 1 μM, 24 hr incubation, relative to recombinant Hh ligand control (100%)): 45.7 ± 3.0% | GI50 ([2]; 72 h, read-out: GI50 (μM) HUVEC): > 100 µM

C[C@@H](O)Cn1ncn(-c2ccc(N3CCN(c4ccc(OCC5COC(Cn6cncn6)(c6ccc(Cl)cc6Cl)O5)cc4)CC3)cc2)c1=O (stereo partly shown) [Itz-psz #2 (R−)]
IC50 [1, 8]: 0.18 ± 0.02 µM | IC50 ([3]; read-out: IC50 (μM) Gli1-ASZs): 0.1 ± 0.01 µM

1-(sec-butyl)-4-(4-(4-(4-((2-(2,4-dichlorophenyl)-2-methyl-1,3-dioxolan-4-yl)methoxy)phenyl)piperazin-1-yl)phenyl)-1H-1,2,4-triazol-5(4H)-one [Compound 2a]
GI50 ([2]; read-out: GI50 HUVEC proliferation): 0.49 µM

CC[C@H](C)n1ncn(-c2ccc(N3CCN(c4ccc(OCC5COC(Cn6cncn6)(c6ccc(Cl)cc6Cl)O5)cc4)CC3)cc2)c1=O (stereo partly drawn) [Compound 6a, 4-(4-(4-(4-((2-((1H-1,2,4-triazol-1-yl)methyl)-2-(2,4-dichlorophenyl)-1,3-dioxolan-4-yl)methoxy)phenyl)piperazin-1-yl)phenyl)-2-((S)-sec-butyl)-2,4-dihydro-3H-1,2,4-triazol-3-one]
mrna remaining at 1 µM ([1]; C3H 10T1/2, 24 h): 6.9 ± 3.1% | IC50 [1, 9]: 0.16 ± 0.04 µM | GI50 [2, 10]: 2.5 ± 0.3 µM | IC50 [3, 11]: 0.14 ± 0.008 µM

CCCn1ncn(-c2ccc(N3CCN(c4ccc(OC[C@H]5CO[C@@](C)(c6ccc(Cl)cc6Cl)O5)cc4)CC3)cc2)c1=O [Compound 25a, 4-(4-(4-(4-(((2R,4S)-2-(2,4-dichlorophenyl)-2-methyl-1,3-dioxolan-4-yl)methoxy)phenyl)piperazin-1-yl)phenyl)-2-propyl-2,4-dihydro-3H-1,2,4-triazol-3-one]
IC50 [1, 5]: > 10 µM | IC50 [1, 12]: > 10 µM | GI50 [2, 6]: 24.9 ± 2.2 µM | IC50 [3, 7]: 0.54 ± 0.06 µM | IC50 [3, 13]: 0.54 µM

CC[C@@H](C)n1ncn(-c2ccc(N3CCN(c4ccc(OCC5COC(Cn6cncn6)(c6ccc(Cl)cc6Cl)O5)cc4)CC3)cc2)c1=O (stereo partly drawn) [Compound 7a, 4-(4-(4-(4-((2-((1H-1,2,4-triazol-1-yl)methyl)-2-(2,4-dichlorophenyl)-1,3-dioxolan-4-yl)methoxy)phenyl)piperazin-1-yl)phenyl)-2-((R)-sec-butyl)-2,4-dihydro-3H-1,2,4-triazol-3-one]
mrna remaining at 1 µM ([1]; C3H 10T1/2, 24 h): 3 ± 0.9% | IC50 [1, 9]: 0.14 ± 0.04 µM | GI50 [2, 10]: 1.7 ± 0.4 µM | IC50 [3, 11]: 0.16 ± 0.07 µM

O=[N+]([O-])c1ccc(N2CCN(c3ccc(OCC4COC(Cn5cncn5)(c5ccc(Cl)cc5Cl)O4)cc3)CC2)cc1 (stereo not shown) [Compound 10a, 1-(4-((2-((1H-1,2,4-triazol-1-yl)methyl)-2-(2,4-dichlorophenyl)-1,3-dioxolan-4-yl)methoxy)phenyl)-4-(4-nitrophenyl)piperazine]
mrna remaining at 1 µM ([1]; C3H 10T1/2, 24 h): 1.5 ± 0.05% | IC50 [1, 9]: 0.13 ± 0.03 µM | GI50 [2, 10]: 8.4 ± 0.7 µM | IC50 [3, 11]: 0.09 ± 0.01 µM

C[C@H](O)Cn1ncn(-c2ccc(N3CCN(c4ccc(OCC5COC(Cn6cncn6)(c6ccc(Cl)cc6Cl)O5)cc4)CC3)cc2)c1=O (stereo partly shown) [Itz-psz #1 (S−)]
IC50 [1, 8]: 0.45 ± 0.09 µM | IC50 ([3]; read-out: IC50 (μM) Gli1-ASZs): 0.15 ± 0.01 µM

CC[C@H](C)n1ncn(-c2ccc(N3CCN(c4ccc(OC[C@H]5CO[C@@](C)(c6ccc(Cl)cc6Cl)O5)cc4)CC3)cc2)c1=O [Compound 15a, 2-((S)-sec-butyl)-4-(4-(4-(4-(((2R,4S)-2-(2,4-dichlorophenyl)-2-methyl-1,3-dioxolan-4-yl)methoxy)phenyl)piperazin-1-yl)phenyl)-2,4-dihydro-3H-1,2,4-triazol-3-one]
IC50 [1, 5]: > 10 µM | IC50 [1, 12]: > 10 µM | GI50 [2, 6]: 78.3 ± 17.3 µM | IC50 [3, 7]: 0.55 ± 0.07 µM | IC50 [3, 13]: 0.55 µM

CCCn1ncn(-c2ccc(N3CCN(c4ccc(OCC5COC(Cn6cncn6)(c6ccc(Cl)cc6Cl)O5)cc4)CC3)cc2)c1=O (stereo not shown) [Compound 8a, 4-(4-(4-(4-((2-((1H-1,2,4-triazol-1-yl)methyl)-2-(2,4-dichlorophenyl)-1,3-dioxolan-4-yl)methoxy)phenyl)piperazin-1-yl)phenyl)-1-propyl-1H-1,2,4-triazol-5(4H)-one]
mrna remaining at 1 µM ([1]; C3H 10T1/2, 24 h): 58.5 ± 6.4% | GI50 [2, 10]: 4.7 ± 0.3 µM

CC(C)N1CCN(c2ccc(OCC3COC(Cn4cncn4)(c4ccc(Cl)cc4Cl)O3)cc2)CC1 (stereo not shown) [terconazole, reference compound]
Hh inhibitory activity relative to ITZ ([1]; 1 μM): significant reduction in Hh inhibitory activity

CC(=O)N1CCN(c2ccc(OCC3COC(Cn4ccnc4)(c4ccc(Cl)cc4Cl)O3)cc2)CC1 (stereo not shown) [ketoconazole, reference compound]
Hh inhibitory activity relative to ITZ ([1]; 1 μM): significant reduction in Hh inhibitory activity

CCC(C)n1ncn(-c2ccc(N3CCN(c4ccc(OCC5COC(C)(C)O5)cc4)CC3)cc2)c1=O (stereo not shown) [Compound 5a, 1-(sec-butyl)-4-(4-(4-(4-((2,2-dimethyl-1,3-dioxolan-4-yl)methoxy)phenyl)piperazin-1-yl)phenyl)-1H-1,2,4-triazol-5(4H)-one]
mrna remaining at 1 µM [1, 4]: 71.4 ± 5.5% | GI50 [2, 6]: > 100 µM

CS(=O)(=O)c1ccc(C(=O)Nc2ccc(Cl)c(-c3ccccn3)c2)c(Cl)c1 [GDC-0449, reference compound]
IC50 ([1]; C3H 10T1/2, down-regulation of endogenous Gli1 mRNA, read-out: Hh pathway inhibition C3H10T1/2): 0.082 ± 0.02 µM | IC50 ([3]; down-regulation of endogenous Gli1 mRNA, read-out: Hh pathway inhibition ASZ): 0.04 ± 0.01 µM

CCC(C)n1ncn(-c2ccc(N3CCN(c4ccc(OCC5COC(C)(Cn6cncn6)O5)cc4)CC3)cc2)c1=O (stereo not shown) [Compound 4a, 4-(4-(4-(4-((2-((1H-1,2,4-triazol-1-yl)methyl)-2-methyl-1,3-dioxolan-4-yl)methoxy)phenyl)piperazin-1-yl)phenyl)-2-(sec-butyl)-2,4-dihydro-3H-1,2,4-triazol-3-one]
mrna remaining at 1 µM [1, 4]: 61.4 ± 3.5% | GI50 [2, 6]: 18.4 ± 4.5 µM
